Earlier results on one compound are cited in patent publication US20230405009A1, “METHODS FOR TREATING HEMATOLOGIC MALIGNANCIES WITH AMINO-PYRROLOPYRIMIDINONE COMPOUNDS” (Merck Sharp & Dohme LLC, priority 2020, published 2023).

One data set has as its system CLL mouse models. As to conditions: Reiff et al. Cancer Discovery 2018.
A further data set concerns DLBCL mouse models. As to conditions: Reiff et al. Cancer Discovery 2018.

With `O=C(c1ccc(Oc2ccccc2)cc1Cl)c1c[nH]c2ncnc(N[C@@H]3CC[C@@H](CO)OC3)c12` [Compound A], the “efficacy compared with ibrutinib in CLL mouse models” value in the data set on CLL mouse models is given as “superiority over ibrutinib”. Further, in the data set with DLBCL mouse models, the “efficacy compared with ibrutinib in DLBCL mouse models” value is “superiority over ibrutinib”.
